# Measurements taken from patent US9011936B2, “Extract of Rosmarinus officinalis L. leaves for pharmaceutical applications” (Naturex, S.A., priority 2009, dated 2015).
# Assays:
# LDL = experiment: Cu^2+-induced LDL oxidation in vitro (conjugated dienes, absorbance at 234 nm); type: biochemical; set-up: key to Lag phase / Oxidation rate / Maximum quantity of dienes: NC: Not calculated since the samples totally inhibits the LDL from oxidation
# Experimental: LDL was concentrated from the plasma of normolipidemic donors by density gradient ultracentrifugation. Prior to oxidation, LDL was diluted in a phosphate buffered saline (PBS) and dialyzed against PBS at 4° C. to remove EDTA. The protein content was determined and adjusted to obtain 0.125 mg of protein/mL. […] The amounts of conjugated dienes were measured by determining the increased absorbance at 234 nm at 10 min intervals for a course span of 720 min using a Tecan Ultra Spectrophotometer (Tecan, Austria). Results were expressed as the relative absorbance at 234 nm. The lag phase, oxidation rate, and the maximum quantity of conjugated dienes were calculated. Results are reported as the mean±SD of three trials for each test. Differential between groups was calculated using the Student's t-test (XLSTAT 2008, Addinsoft™, USA), and the statistical significance was set at P<0.05.
# mice fed a high fat diet = settings: 20 mg/kg/day; after 14 days; cited from earlier work
# olive oil-loaded mice = settings: doses of 5-20 mg/kg; cited from earlier work
# pancreatic lipase = biological target: T1, pancreatic lipase (Homo sapiens, UniProt P16233); settings: cited from earlier work
# T1 sequence (P16233 17-465): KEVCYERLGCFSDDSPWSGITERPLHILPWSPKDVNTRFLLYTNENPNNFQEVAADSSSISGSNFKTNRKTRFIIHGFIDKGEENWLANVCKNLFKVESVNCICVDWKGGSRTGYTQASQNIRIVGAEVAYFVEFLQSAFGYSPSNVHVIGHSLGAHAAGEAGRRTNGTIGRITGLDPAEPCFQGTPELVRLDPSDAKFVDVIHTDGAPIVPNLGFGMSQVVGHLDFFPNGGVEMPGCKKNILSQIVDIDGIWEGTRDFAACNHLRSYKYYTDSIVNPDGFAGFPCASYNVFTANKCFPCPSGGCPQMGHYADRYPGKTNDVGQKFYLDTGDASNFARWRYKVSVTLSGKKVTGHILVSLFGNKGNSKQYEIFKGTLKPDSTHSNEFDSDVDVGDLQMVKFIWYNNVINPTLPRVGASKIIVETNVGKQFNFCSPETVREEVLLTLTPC
# human PPARγ = biological target: T2, human PPARγ (Homo sapiens, UniProt P37231); settings: cited from earlier work
# T2 sequence (P37231 1-505): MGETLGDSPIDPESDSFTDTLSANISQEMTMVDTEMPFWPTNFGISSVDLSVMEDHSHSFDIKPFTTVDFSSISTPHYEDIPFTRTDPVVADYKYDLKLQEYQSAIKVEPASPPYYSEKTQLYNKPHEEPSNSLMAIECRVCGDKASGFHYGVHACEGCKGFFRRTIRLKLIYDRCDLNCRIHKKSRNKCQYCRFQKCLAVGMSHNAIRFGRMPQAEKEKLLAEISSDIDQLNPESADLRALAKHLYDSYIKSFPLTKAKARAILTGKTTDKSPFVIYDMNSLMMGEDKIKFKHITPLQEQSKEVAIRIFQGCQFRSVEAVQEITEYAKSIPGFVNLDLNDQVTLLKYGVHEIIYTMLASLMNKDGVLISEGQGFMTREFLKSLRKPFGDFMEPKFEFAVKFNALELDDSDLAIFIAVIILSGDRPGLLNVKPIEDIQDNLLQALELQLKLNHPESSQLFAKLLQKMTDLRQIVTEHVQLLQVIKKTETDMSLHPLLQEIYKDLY
Structure (SMILES),"Lag phase (LDL; 10 μM, mean ± SD, three trials) [min]","Maximum quantity of dienes (LDL; 10 μM, mean ± SD, three trials)","Oxidation rate (LDL; 10 μM, mean ± SD, three trials) [min⁻¹]",Lag phase (LDL; 100 μM),Maximum quantity of dienes (LDL; 100 μM),Oxidation rate (LDL; 100 μM),inhibition of LDL oxidation (LDL; 100 μM),gain of body weight and accumulation of epididymal fat weight (mice fed a high fat diet),triglyceride elevation (olive oil-loaded mice),pancreatic lipase activity (pancreatic lipase),activation of human PPARγ (human PPARγ)
Cc1c(C)c2c(c(C)c1O)CCC(C)(C(=O)O)O2 (stereo not shown) [Trolox],180 ± 5.2,99.0 ± 1.2 nmol/mg of LDL,80.1 ± 4.1,NC,NC,NC,complete inhibition,–,–,–,–
CC(C)c1cc2c(c(O)c1O)[C@@]1(C(=O)O)CCCC(C)(C)[C@@H]1CC2 [carnosic acid],–,–,–,–,–,–,–,reduced,significantly inhibited,substantially inhibited,activators
CC(C)c1cc2c(c(O)c1O)[C@@]13CCCC(C)(C)[C@@H]1C[C@@H]2OC3=O [carnosol],–,–,–,–,–,–,–,–,–,substantially inhibited,activators
